Measurements: patent US10082510B2, “SRC-2 use as metabolic biomarker for diagnosis and treatment of metastatic prostate cancer” (Baylor College of Medicine, priority 2014, dated 2018)

Tests used:
Format in all cases: cell-based, human
C4-2 and PC-3 cells [1] = test: Oxygen consumption rate (Seahorse XF24); conditions: C4-2 and PC-3 stable cells; oligomycin 25-40 min time frame, FCCP 45-65 min time frame
Description: (A) Real-time measurement of basal and maximal oxygen consumption rate (OCR) in C4-2 stable cells—shNT, sh18 and sh19. (B, C) Basal and maximal OCR in C4-2 stable cells—shNT, sh18 and sh19 were measured in DMSO control (B) or FCCP-treated (C) cells cultured in presence of high glucose (11 mM)/low glutamine (0.2 mM) or low glucose (5 mM)/high glutamine (2 mM). […] Data are graphed as the mean±s.e.m. *P<0.05, **P<0.001 by Student's t test.
(A) Real-time measurement of basal and maximal oxygen consumption rate (OCR) in PC-3 stable cells—shNT, sh18, and sh19. (B, C) Basal and maximal OCR in PC-3 stable cells—shNT, sh18, and sh19 were measured in DMSO control or FCCP-treated cells cultured in presence of high glucose (11 mM)/low glutamine (0.2 mM) or low glucose (5 mM)/high glutamine (2 mM). […] Data are graphed as the mean±s.e.m. *P<0.05, **P<0.001 by Student's t test.
The oxygen consumption rate (OCR) was measured using a Seahorse Bioscience XF24 Extracellular Flux Analyzer according to manufacturer's protocol. Briefly, cells were seeded in triplicates at equal densities (25,000 cells per well) into XF24 tissue culture plates. […] Oxygen consumption was measured under basal conditions (DMSO), oligomycin and mitochondrial uncoupler trifluoromethoxy carbonyl cyanide phenyl 59ydrazine (FCCP) (2 mM) using the mito-stress kit (Seahorse Bioscience). […]

[2] = test system: SRC-2 protein in C4-2 cells; test: Western blot of SRC-2 protein level after kinase inhibitor treatment; conditions: for SRC-2 protein level compared to DMSO-treated cells: Torin 250 nM, 12 hours
Description: FIG. 4—Glutamine stimulation induces mTORC1-dependent SRC-2 transcriptional activity. (A) Western blot analysis of FASN, SCD, SRC-2 and actin in C4-2 stable cells—shNT, sh18 and sh19 grown in high glucose (11 mM)/low glutamine (0.2 mM) or low glucose (5 mM)/high glutamine (2 mM). Actin was used as a control to normalize the protein loading. Semiquantitative levels of each band were analyzed by densitometry using UVP Vision Works LS software and relative values (compared to shNT) normalized to actin are indicated numerically under each lane. (B) C4-2 cells were cultured in presence of high glucose (11 mM)/low glutamine (0.2 mM) or low glucose (5 mM)/high glutamine (2 mM) and then treated with kinase inhibitors: BEZ-235 (1 uM); Rapamycin (100 nM); Torin (250 nM); and Wortmannin (250 nM). Western blot analyses were performed to measure the stability of SRC-2 protein. Semi-quantitative levels of each band were analyzed by densitometry using UVP Vision Works LS software and relative values (compared to DMSO) normalized to actin are indicated numerically under each lane. (C) Immunoprecipitation of HA-SRC-2 followed by Western immunoblot to detect the phosphorylation status of SRC-2 using phospho-serine/threonine antibody. Input lysates were obtained from C4-2 cells expressing Adv.GFP or Adv. SRC-2, and subsequently stimulated with increasing concentration of glutamine—[…] followed by treatment with DMSO or mTORC1 inhibitor-Torin (250 nM). Actin was used to normalize the input loading. Semiquantitative levels of phospho-SRC-2 were analyzed by densitometry using UVP Vision Works LS software and relative values (compared to lane 2) normalized to actin are indicated numerically under each lane. (D) PC-3 cells expressing either Adv.GFP or Adv. SRC-2 were transfected with FASN-luc construct and stimulated with high glucose (11 mM)/low glutamine (0.2 mM) or high glutamine (2 mM)/low glucose (5 mM) followed by treatment with DMSO or Torin (250 nM). Lucifrease assay was then performed to measure the FASN promoter activity and data were normalized to total protein. […]

C4-2 and PC-3 cells [3] = test: Cell growth assay (Cellglo); conditions: C4-2 and PC-3 shNT cells; BPTES 1 μM, 4 days
Description: FIG. 6—SRC-2 is essential for prostate cancer cell survival. (A) Representative images depicting the growth of C4-2 stable cells—shNT, sh18 and sh19 in soft agar assay two weeks after plating. (B) Quantification of the total number of C4-2 stable cell colonies that survived after two weeks. (C) H&E stained sections of mouse lungs from experimental lung metastasis assay. Nude mice were injected with PC-3 cells stably expressing shNT, sh18 and sh19 via tail vein (n=7), and growth and survival of the cells in mouse lungs were analyzed after 5 weeks. (D) Quantification of Ki67 (antibody epitope reacts with human Ki67 protein) stained cells in the mouse lung sections from shNT, sh18 and sh19-injected animals. Refer Supplementary FIG. 14C. (E) Western blot analysis showing the expression levels of SRC-2, FASN, SCD and actin in C4-2 stable cells—shNT and sh19, and re-expression of SRC-2 in sh19 cells infected with Adv. SRC-2. Actin was used to normalize the protein loading. […]
Cells were seeded in 96-well plates in complete medium, and after the cells attached to the bottom surface they were incubated in nutrient-stressed medium. The cell growth was measured using Cellglo kit (Promega) according to manufacturer's instructions. […]

[4] = test system: recruitment of SRC-2 to the FASN and SCD promoters in C4-2 cells; test: ChIP of SRC-2 on FASN and SCD promoters; conditions: glutamine stimulation (2 mM), Torin 250 nM
[5] = test system: SRC-2 serine/threonine phosphorylation in C4-2 cells; test: Immunoprecipitation of HA-SRC-2 and phospho-serine/threonine immunoblot; conditions: C4-2 cells expressing Adv. SRC-2 (HA-SRC-2), glutamine stimulated; Torin 250 nM, 4 hours pre-treatment
Description: (§1) FIG. 4—Glutamine stimulation induces mTORC1-dependent SRC-2 transcriptional activity. (A) Western blot analysis of FASN, SCD, SRC-2 and actin in C4-2 stable cells—shNT, sh18 and sh19 grown in high glucose (11 mM)/low glutamine (0.2 mM) or low glucose (5 mM)/high glutamine (2 mM). Actin was used as a control to normalize the protein loading. Semiquantitative levels of each band were analyzed by densitometry using UVP Vision Works LS software and relative values (compared to shNT) normalized to actin are indicated numerically under each lane. (B) C4-2 cells were cultured in presence of high glucose (11 mM)/low glutamine (0.2 mM) or low glucose (5 mM)/high glutamine (2 mM) and then treated with kinase inhibitors: BEZ-235 (1 uM); Rapamycin (100 nM); Torin (250 nM); and Wortmannin (250 nM). Western blot analyses were performed to measure the stability of SRC-2 protein. Semi-quantitative levels of each band were analyzed by densitometry using UVP Vision Works LS software and relative values (compared to DMSO) normalized to actin are indicated numerically under each lane. […] Semiquantitative levels of phospho-SRC-2 were analyzed by densitometry using UVP Vision Works LS software and relative values (compared to lane 2) normalized to actin are indicated numerically under each lane. […]

[6] = test system: SRC-2 protein stability in C4-2 cells; test: Cycloheximide protein stability assay; conditions: high glutamine (2.0 mM), cycloheximide 0.5 mM, Torin 250 nM
Description: FIG. 14—Glutamine-dependent mTORC1 phosphorylation controls SRC-2 protein stability. (A) C4-2 cells were cultured in presence of low glutamine (0.2 mM) and high glutamine (2.0 mM) followed by treatment with cycloheximide (0.5 mM) for indicated time points. Western blot showing the total-level of SRC-2 and actin was used as a loading control. (B) C4-2 cells were cultured in presence of high glutamine (2.0 mM) followed by either treatment with DMSO and Torin. Cycloheximide (0.5 mM) was then added to the cells for indicated time points. Western blot showing the total-level of SRC-2 and actin was used as a loading control.
SRC-2 protein stability was studied by cycloheximide treatment experiments in C4-2 cells for different time points as described previously (Li C, Jo A, et al, 2011). C4-2 cells were cultured in low glutamine (0.2 mM) or high glutamine (2.0 mM) followed by treatment with cycloheximide (0.5 mM). For Torin treatment, C4-2 cells cultured in high glutamine were either treated with DMSO (vehicle-control) or Torin (250 nM) prior to cyclohexamide treatments. Cells were lysed followed by Western immunoblotting.

SRC-2 mRNA in C4-2 cells = test: Quantitative real time PCR of SRC-2 messenger after kinase inhibitor treatment; conditions: Torin 250 nM
Description: FIG. 13—Glutamine stimulation activates SRC-2 transcriptional functions in an mTORC1 dependent manner. (A) Quantitative real time PCR analysis of FASN, SCD and SRC-2 in C4-2 cells were treated with siGFP (control) or siSRC-2 and cultured in nutrient stressed conditions—high glucose (11 mM)/low glutamine (0.2 mM) or low glucose (5 mM)/high glutamine (2 mM). (B) Quantitative real time PCR analysis of SRC-2 in C4-2 cells expressing siGFP (control) or siSRC-2 and then treated with BEZ-235 (1 uM); Rapamycin (100 nM); Torin (250 nM); and Wortmannin (250 nM). (C) Western blot analysis showing the expression of phospho-S6K (p-S6K), phospho-4EBP1 (p-4EBP1) and actin in C4-2 cells stimulated with increasing concentration of glutamine followed by treatment with DMSO or mTORC1 inhibitor-Torin. Actin was used to normalize the protein loading.
Total mRNA was isolated from prostate cancer cells, tissues and tumors using the RNeasy Kit (QIAGEN). Reverse transcription was carried out using Superscript VILO cDNA synthesis kit (Invitrogen, CA) according to the manufacturer's instructions. For gene expression analysis, qPCR was performed using the Taqman system (Roche) with sequence-specific primers and the Universal Probe Library (Roche). […] Data was analyzed using the comparative Ct method (ΔΔCt). […] Data obtained was analyzed using RT^2 Profiler™ PCR Array Data Analysis software (SA Bioscineces, CA). […]

[7] = test system: SRC-2 driven FASN-promoter activity in PC-3 cells; test: FASN-luc luciferase reporter assay; conditions: PC-3 cells expressing Adv. SRC-2, high glutamine (2 mM)/low glucose (5 mM); Torin 250 nM
Description: as §1, with “(B) C4-2 cells were cultured in presence of high glucose (11 mM)/low glutamine (0.2 mM) or low glucose (5 mM)/high glutamine (2 mM) and then treated with kinase inhibitors: BEZ-235 (1 uM); Rapamycin (100 nM); Torin (250 nM); and Wortmannin (250 nM). Western blot analyses were performed to measure the stability of SRC-2 protein.” left out
Luciferase assays were performed using Luciferase Reporter Assay (Promega) and a Berthold 96 well plate reader. […]
Luciferase promoter constructs were obtained from following sources: FASN-Addgene, SCD-Switchgear genomics and ZIP1—Peter Makhov (Fox Chase Cancer Center). […] Cells were harvested two days after transfection and luciferase assay performed using a Luciferase Reporter Assay (Promega) and a Berthold 96 well plate reader. […]

N#CC(C#N)=NNc1ccc(OC(F)(F)F)cc1 [FCCP, Carbonyl cyanide 4-(trifluoromethoxy)phenylhydrazone]
Oxygen consumption rate (OCR) (C4-2 and PC-3 cells [1]): dramatically enhanced

CC[C@H]1/C=C/C=C/C[C@@H](C)[C@H](O)[C@@](C)(O)C(=O)[C@@H](C)[C@H](O)[C@@H](C)C(=O)[C@@H](C)[C@H](O)[C@@H](C)/C=C/C(=O)O[C@@H]2[C@H](C)[C@H](CC1)O[C@]1(CC[C@H](C)[C@H](C[C@@H](C)O)O1)[C@H]2C [oligomycin]
Oxygen consumption rate (OCR) (C4-2 and PC-3 cells [1]): decreased the oxygen consumption

Cn1c(=O)n(-c2ccc(C(C)(C)C#N)cc2)c2c3cc(-c4cnc5ccccc5c4)ccc3ncc21 [BEZ-235]
SRC-2 protein stability ([2]; either culture condition (high glucose/low glutamine or low glucose/high glutamine), BEZ-235 1 uM): failed to show any effect

O=C(Cc1ccccc1)Nc1nnc(CCSCCc2nnc(NC(=O)Cc3ccccc3)s2)s1 [BPTES]
Prostate cancer cell growth compared to DMSO (C4-2 and PC-3 cells [3]): robust decrease

CCC(=O)N1CCN(c2ccc(-n3c(=O)ccc4cnc5ccc(-c6cnc7ccccc7c6)cc5c43)cc2C(F)(F)F)CC1 [Torin]
Glutamine dependent recruitment of SRC-2 to the FASN and SCD promoters [4]: significantly blocked
Glutamine-induced SRC-2-serine/threonine phosphorylation [5]: reversed
Glutamine-increased SRC-2 protein stability (cycloheximide time course) [6]: completely suppressed
SRC-2 protein level compared to DMSO-treated cells ([2]; glutamine-stimulated (low glucose 5 mM/high glutamine 2 mM), Rapamycin 100 nM): down-regulated
SRC-2 protein level compared to DMSO-treated cells ([2]; high glucose (11 mM)/low glutamine (0.2 mM), Wortmannin 250 nM): not observed
SRC-2 messenger expression (SRC-2 mRNA in C4-2 cells): without any appreciable change
Glutamine dependent SRC-2 driven FASN-promoter activity [7]: significantly blocked
